For data set [1], the system named is cancer and normal cells. As to the kind of experiment: Cell viability assay. In kind it is cell-based, human. The note with it: 72 h.
Data set [2] concerns the target HSA (Homo sapiens, UniProt P02768). Nature of the data set: Interaction between avasimibe and HSA. In kind it is binding. As to conditions: avasimibe:HSA molar ratio 16:1, warfarin:HSA 10:1, warfarin fluorescence.
In data set [3] the test system is PC3. As to the kind of experiment: Cell viability assay. The format is cell-based. As to conditions: Homo sapiens, PC-3, 72 h, read-out: IC50 of avasimin (containing avasimibe).
A short description of data set [4]: Blood bioavailability of avasimibe. In kind it is in vivo, mice. As to conditions: nude, mouse, whole blood, po.
Data set [5] can be described thus: Tissue distribution of avasimibe in PC3 tumor-bearing mice. In kind it is in vivo. As to conditions: oral avasimibe 15 mg/kg, 2 hr.
Data set [6] deals with PC3 tumors. As to the kind of experiment: Anti-tumor effect, PC3 tumor xenograft. The note with it: oral avasimibe 15 mg/kg daily by gavage, versus PBS.

pIC50: −log10 of the molar value.

The pIC50 is the IC50 on a negative log10 scale, so that one unit is a factor of ten. Broadly, the AUC is the area under the concentration-time curve, a measure of exposure.

HSA, sequence (P02768 25-609): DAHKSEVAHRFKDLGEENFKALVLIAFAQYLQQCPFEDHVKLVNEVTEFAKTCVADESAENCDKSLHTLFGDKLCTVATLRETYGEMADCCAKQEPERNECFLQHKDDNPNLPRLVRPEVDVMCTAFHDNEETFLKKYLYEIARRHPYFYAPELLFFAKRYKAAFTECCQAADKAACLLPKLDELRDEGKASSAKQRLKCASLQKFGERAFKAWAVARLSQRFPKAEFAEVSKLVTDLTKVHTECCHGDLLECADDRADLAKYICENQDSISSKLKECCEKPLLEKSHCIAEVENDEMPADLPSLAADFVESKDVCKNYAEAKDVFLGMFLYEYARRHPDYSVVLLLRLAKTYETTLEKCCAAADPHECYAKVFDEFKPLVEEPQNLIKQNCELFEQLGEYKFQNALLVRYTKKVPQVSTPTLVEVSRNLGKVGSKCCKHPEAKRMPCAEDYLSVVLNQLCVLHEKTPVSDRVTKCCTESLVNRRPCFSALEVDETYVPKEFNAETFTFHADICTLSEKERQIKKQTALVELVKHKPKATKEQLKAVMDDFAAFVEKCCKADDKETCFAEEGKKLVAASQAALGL

In the case of `N.N.[Cl][Pt][Cl]` [cisplatin], the “effect on viability of cancer and normal cells” value in data set [1] is reported as “non-selective cytotoxic effects”.

Turning to `Nc1ccn([C@@H]2O[C@H](CO)[C@@H](O)C2(F)F)c(=O)n1` [gemcitabine], the “effect on viability of cancer and normal cells” value in data set [1] is listed as “non-selective cytotoxic effects”.

On to `CC(C)c1cc(C(C)C)c(CC(=O)NS(=O)(=O)Oc2c(C(C)C)cccc2C(C)C)c(C(C)C)c1` [avasimibe], for which the “replacement of warfarin at the primary binding site (site I) of HSA” value in data set [2] was “complete replacement of warfarin”. Besides, in data set [3], the negative-log IC50 (pIC50) is 5.07. This compound gave an AUC in data set [4] (15 mg/kg) of 14900 ng·h/mL. The AUC in data set [4] (100 mg/kg) came to 49900 ng·h/mL. In addition, in data set [5], the “avasimibe in the tumor tissue” value is “not detectable”, the “distribution of avasimibe to liver” value is on record as “most orally administered avasimibe was found in the liver tissue” and the “excretion of avasimibe through feces” value was “considerable amount of avasimibe was excreted through the feces”. Also, in data set [6], the “anti-tumor effect in terms of tumor volume” value is listed as “did not exhibit anti-tumor effect”.

(Values after article PMC5909415 (ACS nano, 2015).)
